According to ChEMBL document CHEMBL1130884, “Synthesis of novel antifungal agents (2)” (1998):
≈ marks a conversion by molar mass, not a printed value.

What was measured:
Mus musculus = assay: Compound was tested for antifungal activity by measuring systemic candidosis in mice on 7th day upon single peroral administration; type: functional; details: po
Aspergillus fumigatus = assay: Compound was tested in vitro for antifungal activity against Aspergillus fumigatus (CF1003); type: functional
Candida albicans = assay: Compound was tested for in vitro antifungal activity against Candida albicans (CY3003); type: functional
Cryptococcus neoformans = assay: Compound was tested for in vitro antifungal activity against Cryptococcus neoformans (CY1057)

| Compound | ED50 (Mus musculus) [mg/kg] | IC80 (Aspergillus fumigatus) [µg/mL] | IC80 (Candida albicans) [µg/mL] | IC80 (Cryptococcus neoformans) [µg/mL] |
| --- | --- | --- | --- | --- |
| OC(Cn1cncn1)(Cn1cncn1)c1ccc(F)cc1F [FLUCONAZOLE] | 5.4 | > 200 | 1.4 (≈ 4.57 µM) | 3.6 (≈ 11.8 µM) |
| CO/N=C1/[C@@H](Cn2cncn2)[C@H](COc2ccc(OC(C)(C)C)cc2)CC[C@@]1(C)CCn1ccnc1 | > 100 | 4.6 (≈ 9.3 µM) | 0.22 (≈ 0.445 µM) | 13 (≈ 26.3 µM) |
| COCC[C@]1(C)CC[C@@H](COc2ccc(OC(C)(C)C)cc2)[C@H](Cn2cncn2)/C1=N/OC | > 100 | 0.6 (≈ 1.31 µM) | 0.05 (≈ 0.109 µM) | 1 (≈ 2.18 µM) |
| COC1[C@@H](Cn2cncn2)[C@H](COc2ccc(OC(C)(C)C)cc2)CC[C@@]1(C)CCS(C)(=O)=O (stereo partly specified) | 50 | > 200 | 0.7 (≈ 1.42 µM) | 0.38 (≈ 0.77 µM) |
| COC1[C@@H](Cn2cncn2)[C@H](COc2ccc(OC(C)(C)C)cc2)CC[C@@]1(C)CCn1ccnc1 (stereo partly specified) | 50 | 84 (≈ 174 µM) | 0.08 (≈ 0.166 µM) | 0.24 (≈ 0.498 µM) |
| CO/N=C1/[C@@H](Cn2cncn2)[C@H](COc2ccc(OC(C)(C)C)cc2)CC[C@@]1(C)CCSc1ncccn1 | > 100 | 2.6 (≈ 4.83 µM) | 0.85 (≈ 1.58 µM) | 1.1 (≈ 2.04 µM) |
| CSCC[C@]1(C)CC[C@@H](COc2ccc(OC(C)(C)C)cc2)[C@H](Cn2cncn2)/C1=N/O | > 100 | 0.45 (≈ 0.977 µM) | 0.18 (≈ 0.391 µM) | 21 (≈ 45.6 µM) |
| CO[C@@H]1[C@@H](Cn2cncn2)[C@H](COc2ccc(OC(C)(C)C)cc2)CC[C@@]1(C)CCSc1nccn1C | 50 | 36 (≈ 68.2 µM) | 0.5 (≈ 0.947 µM) | 0.9 (≈ 1.71 µM) |
| COC1[C@@H](Cn2cncn2)[C@H](COc2ccc(OC(C)(C)C)cc2)CC[C@@]1(C)CCN1CCOCC1 (stereo partly specified) | 50 | 158 (≈ 316 µM) | 0.03 (≈ 0.0599 µM) | 0.02 (≈ 0.0399 µM) |
